Experimental findings from US7550465B2, “Pyrido[3,2-e]pyrazines, their use as inhibitors of phosphodiesterase 10, and processes for preparing them” (Elbion GmbH, priority 2006, dated 2009) are described below.

pIC50: −log10 of the molar value. Where only a bound is given, the exact number is not on record here.

One series has as its target PDE10 from pig striatum (Sus scrofa, UniProt A0A287B941). Kind of series: Inhibition of PDE10 from pig striatum ([3H]-cAMP SPA). Type of series: biochemical. The note with it: for pIC50: pig striatum preparation, 0.1 μM [3H]-cAMP, 37° C., 30 minutes. The method, then: (§1) Phosphodiesterase isoenzyme 10 (PDE10) activity was determined in preparations of rat, pig and guinea pig striatum respectively. Striatum from male Wistar rats (180-200 g), male hybrid pigs (150 kg) and male guinea pigs (CRL (HA), 500 g) respectively were collected and frozen at −70° C.
(§2) For the enzymatic testing of PDE10 activity 0.5 g of the isolated and frozen striatum was homogenised in 10 ml 50 mM Tris/Mg-buffer at 4° C. and centrifuged for one hour at 100000 g.
(§3) Nonspecific activity was tested without the enzyme. […] For determination of IC50 values the Hill-plot, 2-parameter-model, was used.

In series [1] the test system is MK-801-induced hyperactivity and stereotyped sniffing. Kind of series: MK-801-induced psychosis (hyperactivity and stereotyped sniffing). In kind it is in vivo, rat. The note with it: p.o., 30 min before test (Example 30: 60 min), female Wistar rats, MK-801 0.1 mg/kg i.p. 10 min before, vs MK-801 control; for dose significantly reversing MK-801-induced hyperactivity: activity recorded 1 h; for dose significantly reversing MK-801-induced stereotyped sniffing: scored 1 h. The method, then: Female Wistar rats (Crl: (WI) BR, Charles River, Sulzfeld, Germany) weighing 150 to 180 g were used for the MK-801-induced psychosis. Animals were housed under standard conditions in groups of five on a 12 h light/dark cycle (light on at 0600 h) with ad libitum access to food (Pellets, ssniff M/R 15, Spezialdiät GmbH, Soest/Westfalen) and
Hydroxyethylcellulose was solved in distilled water.
MK-801 was solved in saline so that an administration volume of 0.5 ml/100 g was reached. The suspensions and solution were placed on a magnetic stirrer before and during dosing procedures.
The behaviour induced by the NMDA antagonist MK-801 is generally accepted as a rat model of psychosis. MK-801 induces stereotyped sniffing, hyperactivity and ataxia in rats after intraperitoneal administration.
Locomotor activity of the rats was recorded by the MotiTest Apparatus (TSE, Bad Homburg, Germany). The test area consisted of a squared arena (45×45 cm) with protective plexiglass walls (20 cm of height) where rats could freely move. Horizontal movements were recorded by 32 infrared photocells arranged along the bottom of each wall of the arena. The activity [sec] was measured by the computer program “ActiMot” (TSE, Bad Homburg, Germany).
Stereotyped sniffing was scored by the experimenter every five minutes for one hour (12 intervals) according to the method described by Andiné et al. (1999). The scores of the 12 intervals were summed up at the end of the recording time.
The day of experiment the female rats were placed in the laboratory and received the test compound or vehicle at the appropriate time prior to test. MK-801 0.1 mg/kg was intraperitoneally administered 10 minutes prior to test.
At the beginning of the test the rats were placed in the centre of the squared arena of the MotiTest apparatus. Behaviour of the rats was recorded for one hour. After each run animals were removed and the boxes thoroughly cleaned and dried.
Results were analysed by one way analysis of variance (ANOVA). Tukey test was used for individual comparison. P<0.05 was regarded as significant.

Series [2] addresses PDE10 from guinea pig striatum (Cavia porcellus, UniProt A0A286XN47). In words: Inhibition of PDE10 from guinea pig striatum ([3H]-cAMP SPA). Type of series: biochemical. The settings on record: guinea pig striatum preparation; 0.1 μM [3H]-cAMP; 37° C., 30 minutes. The method, then: as §1, §2, §3
The target of the next series is T1, PDE10 from rat striatum (Rattus norvegicus, UniProt Q9QYJ6).
T1 construct: from tissue; host or cells: rat striatum (male Wistar rats), homogenate fractions enriched on HiTrap Q HP
T1 sequence (Q9QYJ6 1-794): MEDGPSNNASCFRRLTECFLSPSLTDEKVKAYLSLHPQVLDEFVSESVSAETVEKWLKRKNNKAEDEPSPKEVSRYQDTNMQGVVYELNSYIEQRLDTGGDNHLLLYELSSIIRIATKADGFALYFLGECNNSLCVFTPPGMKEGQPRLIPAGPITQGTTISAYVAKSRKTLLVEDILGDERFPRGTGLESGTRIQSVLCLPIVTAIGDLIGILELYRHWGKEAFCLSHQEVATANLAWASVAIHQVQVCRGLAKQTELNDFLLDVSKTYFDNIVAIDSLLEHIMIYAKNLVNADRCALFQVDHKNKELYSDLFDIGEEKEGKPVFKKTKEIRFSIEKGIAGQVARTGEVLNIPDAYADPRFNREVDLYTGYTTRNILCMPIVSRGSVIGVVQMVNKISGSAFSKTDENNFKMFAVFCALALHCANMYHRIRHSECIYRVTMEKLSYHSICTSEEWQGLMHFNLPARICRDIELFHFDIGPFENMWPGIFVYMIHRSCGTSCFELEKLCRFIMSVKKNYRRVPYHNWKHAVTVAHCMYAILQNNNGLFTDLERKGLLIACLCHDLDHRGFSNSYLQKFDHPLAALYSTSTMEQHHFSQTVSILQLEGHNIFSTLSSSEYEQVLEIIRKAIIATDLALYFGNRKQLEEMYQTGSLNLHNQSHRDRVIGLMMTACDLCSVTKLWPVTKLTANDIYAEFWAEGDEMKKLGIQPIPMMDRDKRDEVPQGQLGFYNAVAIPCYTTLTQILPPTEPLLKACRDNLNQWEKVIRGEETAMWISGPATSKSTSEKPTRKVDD
Kind of series: Inhibition of PDE10 from rat striatum ([3H]-cAMP SPA). In kind it is biochemical. The note with it: substrate of the enzyme preparation. Here is the method: as §1, §2, §3

PDE10 from guinea pig striatum, sequence (A0A286XN47 1-773): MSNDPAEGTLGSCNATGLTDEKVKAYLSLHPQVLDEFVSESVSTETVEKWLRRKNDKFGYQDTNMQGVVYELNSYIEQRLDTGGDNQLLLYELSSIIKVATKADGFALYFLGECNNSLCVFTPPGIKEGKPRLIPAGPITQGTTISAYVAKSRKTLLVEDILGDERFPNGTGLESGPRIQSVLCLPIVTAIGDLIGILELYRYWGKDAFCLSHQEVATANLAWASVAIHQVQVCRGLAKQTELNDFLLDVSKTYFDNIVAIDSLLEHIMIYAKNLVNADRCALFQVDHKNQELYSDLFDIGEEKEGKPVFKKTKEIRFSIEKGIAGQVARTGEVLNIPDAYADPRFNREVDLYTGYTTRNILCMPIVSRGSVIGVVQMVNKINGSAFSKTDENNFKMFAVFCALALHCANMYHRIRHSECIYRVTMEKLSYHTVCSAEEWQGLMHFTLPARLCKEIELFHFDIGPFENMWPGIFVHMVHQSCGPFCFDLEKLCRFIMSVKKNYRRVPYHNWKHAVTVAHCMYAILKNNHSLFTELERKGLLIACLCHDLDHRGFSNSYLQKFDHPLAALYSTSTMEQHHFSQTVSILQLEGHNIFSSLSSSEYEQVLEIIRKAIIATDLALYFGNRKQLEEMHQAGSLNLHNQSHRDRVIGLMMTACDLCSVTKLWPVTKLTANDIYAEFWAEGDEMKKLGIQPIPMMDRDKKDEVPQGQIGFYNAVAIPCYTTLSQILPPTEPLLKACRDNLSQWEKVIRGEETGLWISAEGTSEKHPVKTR

The compound “1-propyl-4,8-dimethyl-imidazo[1,5-a]pyrido[3,2-e]pyrazine [Example 53]” showed a pIC50 on PDE10 from pig striatum of 7.37.

Regarding “3,4-dimethyl-8-(piperidin-1-yl)-methoxy-1-propyl-imidazo[1,5-a]pyrido[3,2-e]pyrazine [Example 55]”, in series [1], the “dose significantly reversing MK-801-induced hyperactivity” value is reported as 30 mg/kg and the “dose significantly reversing MK-801-induced stereotyped sniffing” value is listed as 30 mg/kg.

Take “4-cyano-8-methoxy-3-methyl-1-ethyl-imidazo[1,5-a]pyrido[3,2-e]pyrazine [Example 30]”: in series [1], the “dose significantly reversing MK-801-induced hyperactivity” value is not below 10 mg/kg and the “dose significantly reversing MK-801-induced stereotyped sniffing” value was not below 10 mg/kg.

Consider “8-methoxy-3-methyl-1-propyl-imidazo[1,5-a]pyrido[3,2-e]pyrazine [Example 35]”, for which, in series [1], the “dose significantly reversing MK-801-induced hyperactivity” value was 30 mg/kg and the “dose significantly reversing MK-801-induced stereotyped sniffing” value is listed as not below 30 mg/kg.

For “8-methoxy-4-methoxycarbonylamino-3-methyl-1-propyl-imidazo[1,5-a]pyrido[3,2-e]pyrazine [Example 62]”, in series [1], the “dose significantly reversing MK-801-induced hyperactivity” value is on record as 5 mg/kg and the “dose significantly reversing MK-801-induced stereotyped sniffing” value is recorded as 5 mg/kg.

The compound `CCCN1CC=C(OC)C2=C1N1CN(OC)C=C1C=N2` [Example 2, 4,8-dimethoxy-1-propyl-imidazo[1,5-a]pyrido[3,2-e]pyrazine] showed a melting point of 113 to 116 °C.

Turning to `CCCOC1=C(C)CN(CC)C2=C1N=CC1=CN(OC)CN12` [Example 7, 1-ethyl-8-methoxy-3-methyl-4-propyloxy-imidazo[1,5-a]pyrido[3,2-e]pyrazine], the melting point fell in the range of 78 to 81 °C.

`CCCN1CC(C)=C(OC(C)C)C2=C1N1CN(OC)C=C1C=N2` [Example 9, 4-isopropyloxy-8-methoxy-3-methyl-1-propyl-imidazo[1,5-a]pyrido[3,2-e]pyrazine] had a melting point of 78 to 80 °C.

The compound `CCCN1CC(C)=C(SC)C2=C1N1CN(OC)C=C1C=N2` [Example 26, 8-methoxy-3-methyl-4-methylthio-1-propyl-imidazo[1,5-a]pyrido[3,2-e]pyrazine] registered a melting point of 112 to 115 °C.

In series [2], `CCCc1nc(C)c2c(C#N)nc3ccc(OC)nc3n12` [Example 29, 4-cyano-8-methoxy-3-methyl-1-propyl-imidazo[1,5-a]pyrido[3,2e]pyrazine] showed a pIC50 of 7.74. Further, the “dose significantly reversing MK-801-induced stereotyped sniffing” value in series [1] is given as not below 5 mg/kg.

Regarding `CCN1CC(C)=C([S+](C)[O-])C2=C1N1CN(OC)C=C1C=N2` (centres unmarked) [Example 34, 1-ethyl-8-methoxy-3-methyl-4-methylsulfinyl-imidazo[1,5-a]pyrido[3,2-e]pyrazine], the melting point was in the range of 189 to 192 °C.

For `CCN1CC(C)=CC2=C1N1CN(OC)C=C1C=N2` [Example 36, 1-ethyl-8-methoxy-3-methyl-imidazo[1,5-a]pyrido[3,2-e]pyrazine], the melting point was 159 to 162 °C.

`CCCN1CC(C)=C(C)C2=C1N1CN(C)C=C1C=N2` [Example 51, 1-propyl-3,4,8-trimethyl-imidazo[1,5-a]pyrido[3,2-e]pyrazine] had a melting point of 104 to 107 °C.

With `CCCc1nc(C)c2c(NS(=O)(=O)C(F)(F)F)nc3ccc(OC)nc3n12` [Example 73, 8-methoxy-3-methyl-1-propyl-4-trifluoromethylsulfonylamino-imidazo[1,5a]pyrido[3,2-e]pyrazine], the pIC50 against PDE10 from pig striatum was 7.72.

Turning to `CCCN1CC(C)=C(NS(=O)(=O)CCC)C2=C1N1CN(OC)C=C1C=N2` [Example 74, 8-methoxy-3-methyl-1-propyl-4-propylsulfonylamino-imidazo[1,5-a]pyrido[3,2-e]pyrazine], the melting point lay in the range of 203 to 206 °C.

In turn, `CCCN1CC(C)=C(NS(=O)(=O)c2ccc(C)cc2)C2=C1N1CN(OC)C=C1C=N2` [Example 76, 8-methoxy-3-methyl-4-(4-methylphenylsulfonylamino)-1-propyl-imidazo[1,5-a]pyrido[3,2-e]pyrazine] returned a melting point of 229 to 232 °C.

For `CCCN1CC(C)=C(N(S(=O)(=O)c2ccc(C)cc2)S(=O)(=O)c2ccc(C)cc2)C2=C1N1CN(OC)C=C1C=N2` [Example 77, 4-[N,N-bis-(4-methylphenylsulfonyl)-amino]-8-methoxy-3-methyl-1-propyl-imidazo[1,5-a]pyrido[3,2-e]pyrazine], the melting point is 206 to 209 °C.

`CON1C=C2C=NC3=C(N(CCC(F)(F)F)CC(C)=C3NS(C)(=O)=O)N2C1` [Example 78, 8-methoxy-3-methyl-1-(3,3,3-trifluoropropyl)-4-methylsulfonylamino-imidazo[1,5-a]pyrido[3,2-e]pyrazine] registered a melting point of 250 to 253 °C.

For `CON1C=C2C=NC3=C(N2C1)N(c1ccccc1)CC(C)=C3NS(C)(=O)=O` [Example 81, 8-methoxy-3-methyl-1-phenyl-4-methylsulfonylamino-imidazo[1,5-a]pyrido[3,2-e]pyrazine], the melting point fell in the range of 217 to 220 °C.

For `Nc1nc2c(ncn2[C@@H]2O[C@@H]3COP(=O)(O)O[C@H]3[C@H]2O)c(=O)[nH]1` [cGMP], the Km on PDE10 from rat striatum worked out at 1.8 µM; at PDE10 from pig striatum (substrate of the enzyme preparation), 2.2 µM.
